Molecular target: DOR (Homo sapiens, UniProt P41143)
Experiment: Opioid secondary binding, DOR (Table 4)
Conditions: Opioid secondary binding activity for Formula 10 analogs

Chain of DOR (P41143 whole entry): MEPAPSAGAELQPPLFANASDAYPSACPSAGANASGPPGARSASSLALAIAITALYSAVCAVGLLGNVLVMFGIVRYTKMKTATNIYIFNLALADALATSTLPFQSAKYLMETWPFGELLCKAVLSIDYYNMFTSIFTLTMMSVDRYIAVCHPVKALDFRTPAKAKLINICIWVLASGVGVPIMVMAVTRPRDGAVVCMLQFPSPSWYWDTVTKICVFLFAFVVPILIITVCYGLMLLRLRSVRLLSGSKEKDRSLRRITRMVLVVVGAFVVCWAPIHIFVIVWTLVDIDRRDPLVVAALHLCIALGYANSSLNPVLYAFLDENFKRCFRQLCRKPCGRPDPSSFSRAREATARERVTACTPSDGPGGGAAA

Row | SMILES | Ki [nM]
1 | NC(=O)c1ccccc1NC(=O)[C@@H]1CC=C[C@@H]2CCN(c3ccccc3)C(=O)[C@@H]21 (racemic) [compound 12117] | 648
2 | Cc1ccc(CNC(=O)[C@@H]2CC=C[C@@H]3CCN(c4ccccc4)C(=O)[C@@H]32)cc1 (racemic) [compound 11950] | 297
3 | O=C(NC12CC3CC(CC(C3)C1)C2)[C@@H]1CC=C[C@@H]2CCN(CC3CC3)C(=O)[C@@H]21 (racemic) [compound 11940] | 701
4 | O=C(Nc1ccc(Br)c(C(F)(F)F)c1)[C@@H]1CC=C[C@@H]2CCN(CC3CCCCC3)C(=O)[C@@H]21 (racemic) [compound 12173] | 508
5 | CN(C)C(=O)[C@@H]1CC=C[C@@H]2CCN(c3ccccc3)C(=O)[C@@H]21 (racemic) [compound 12096] | > 10000
6 | O=C(Nc1cccnc1)[C@@H]1CC=C[C@@H]2CCN(C3CCCCC3)C(=O)[C@@H]21 (racemic) [compound 11921] | 836
7 | O=C(Nc1cc(F)c(F)c(F)c1)[C@@H]1CC=C[C@@H]2CCN(C3CCCCC3)C(=O)[C@@H]21 (racemic) [compound 12088] | 2790
8 | O=C(NCc1cccc(Br)c1)[C@@H]1CC=C[C@@H]2CCN(c3ccccc3)C(=O)[C@@H]21 (racemic) [compound 11949] | 302
9 | O=C(Nc1cccc(Cl)c1)[C@@H]1CC=C[C@@H]2CN(C3CCCCC3)C(=O)[C@@H]21 (racemic) [compound 14437] | 962
10 | Cc1ccc(CNC(=O)[C@@H]2CC=C[C@@H]3CCN(Cc4ccccc4)C(=O)[C@@H]32)cc1 (racemic) [compound 11956] | 2360
11 | O=C([C@@H]1CC=C[C@@H]2CCN(c3ccccc3)C(=O)[C@@H]21)N1CCCC1 (racemic) [compound 12094] | > 10000
12 | CC(c1ccccc1)N1CCC2C=CCC(C(=O)Nc3nccs3)C2C1=O (mixture of isomers) [compound 12168] | 1450
13 | O=C(NC1CCCCC1)[C@@H]1CC=C[C@@H]2CCN(CC3CC3)C(=O)[C@@H]21 (racemic) [compound 12152] | 2520
14 | CN(C(=O)[C@@H]1CC=C[C@@H]2CCN(C3CCCCC3)C(=O)[C@@H]21)c1ccccc1 (racemic) [compound 12160] | 2980
15 | CN(C)C(=O)[C@@H]1CC=C[C@@H]2CCN(Cc3ccccc3)C(=O)[C@@H]21 (racemic) [compound 12101] | > 10000
16 | Cc1cc(C)c(NC(=O)[C@@H]2CC=C[C@@H]3CCN(c4ccccc4)C(=O)[C@@H]32)c(C)c1 (racemic) [compound 11951] | 4300
17 | O=C(Nc1nccs1)[C@@H]1CC=C[C@@H]2CCN(CC3CC3)C(=O)[C@@H]21 (racemic) [compound 12157] | 3500
18 | O=C(Nc1ccccc1)[C@@H]1CC=C[C@@H]2CCN(CC3CC3)C(=O)[C@@H]21 (racemic) [compound 12153] | 6620
19 | O=C(NC1CCCCC1)[C@@H]1CC=C[C@@H]2CN(C3CCCCC3)C(=O)[C@@H]21 (racemic) [compound 14436] | 2150
20 | O=C(NCC1CC1)[C@@H]1CC=C[C@@H]2CCN(C3CCCCC3)C(=O)[C@@H]21 (racemic) [compound 12085] | 475
21 | Cc1cc(C)c(NC(=O)[C@@H]2CC=C[C@@H]3CCN(Cc4ccccc4)C(=O)[C@@H]32)c(C)c1 (racemic) [compound 11957] | 3220

Row | SMILES | Ki [nM]
22 | CCOC(=O)C1CCCCN1C(=O)[C@@H]1CC=C[C@@H]2CCN(CC3CCCCC3)C(=O)[C@@H]21 (mixture of isomers) [compound 12115] | 9160
23 | O=C(Nc1ccc(Br)c(C(F)(F)F)c1)[C@@H]1CC=C[C@@H]2CN(C3CCCCC3)C(=O)[C@@H]21 (racemic) [compound 14438] | 1920
24 | C=CCNC(=O)[C@@H]1CC=C[C@@H]2CCN(Cc3ccccc3)C(=O)[C@@H]21 (racemic) [compound 12122] | 3430
25 | O=C(NCc1ccc(Cl)c(Cl)c1)[C@@H]1CC=C[C@@H]2CCN(CC3CCCCC3)C(=O)[C@@H]21 (racemic) [compound 12136] | 1300
26 | COc1ccc(CNC(=O)[C@@H]2CC=C[C@@H]3CCN(Cc4ccccc4)C(=O)[C@@H]32)cc1OC (racemic) [compound 12126] | > 10000
27 | O=C(Nc1ccc(I)cc1)[C@@H]1CC=C[C@@H]2CCN(CC3CC3)C(=O)[C@@H]21 (racemic) [compound 11942] | 1280
28 | O=C(Nc1ccc(Br)c(C(F)(F)F)c1)[C@@H]1CC=C[C@@H]2CN(Cc3ccccc3)C(=O)[C@@H]21 (racemic) [compound 14432] | 2770
29 | Cc1cc(C)c(NC(=O)[C@@H]2CC=C[C@@H]3CCN(CC4CC4)C(=O)[C@@H]32)c(C)c1 (racemic) [compound 11945] | > 10000
30 | CC(C)N(C(=O)[C@@H]1CC=C[C@@H]2CCN(CC3CCCCC3)C(=O)[C@@H]21)C1CCCCC1 (racemic) [compound 12134] | 1630
31 | O=C(Nc1cc(F)c(F)c(F)c1)[C@@H]1CC=C[C@@H]2CCN(c3ccccc3)C(=O)[C@@H]21 (racemic) [compound 12098] | 289
32 | O=C(NCC1CC1)[C@@H]1CC=C[C@@H]2CCN(Cc3ccccc3)C(=O)[C@@H]21 (racemic) [compound 12100] | 539
33 | O=C(Nc1cccc(Cl)c1)[C@@H]1CC=C[C@@H]2CCN(CC3CC3)C(=O)[C@@H]21 (racemic) [compound 12154] | 1180
34 | O=C(Nc1ccc(Br)c(C(F)(F)F)c1)[C@@H]1CC=C[C@@H]2CCN(CC3CC3)C(=O)[C@@H]21 (racemic) [compound 12172] | 1280
35 | O=C([C@@H]1CC=C[C@@H]2CCN(C3CCCCC3)C(=O)[C@@H]21)N1CCCC1 (racemic) [compound 12084] | 6290
36 | O=C(Nc1ccc(Cl)cc1)[C@@H]1CC=C[C@@H]2CCN(C3CCCCC3)C(=O)[C@@H]21 (racemic) [compound 12087] | 582
37 | O=C(Nc1ccc([N+](=O)[O-])c(C(F)(F)F)c1)[C@@H]1CC=C[C@@H]2CCN(c3ccccc3)C(=O)[C@@H]21 (racemic) [compound 11926] | 35
38 | CN(C(=O)[C@@H]1CC=C[C@@H]2CCN(c3ccccc3)C(=O)[C@@H]21)c1ccccc1 (racemic) [compound 12119] | 4010
39 | O=C(Nc1nccs1)[C@@H]1CC=C[C@@H]2CCCN(C3CCCCC3)C(=O)[C@@H]21 (racemic) [compound 14428] | 2990
40 | O=C(NCC1CC1)[C@@H]1CC=C[C@@H]2CCN(c3ccccc3)C(=O)[C@@H]21 (racemic) [compound 12095] | 1220
41 | O=C(Nc1cc(F)c(F)c(F)c1)[C@@H]1CC=C[C@@H]2CCN(Cc3ccccc3)C(=O)[C@@H]21 (racemic) [compound 12103] | 180
42 | Cc1ccc(NC(=O)[C@@H]2CC=C[C@@H]3CCN(Cc4ccccc4)C(=O)[C@@H]32)c(F)c1F (racemic) [compound 13476] | 559

Row | SMILES | Ki [nM]
43 | O=C(Nc1ccc(Cl)c(C(F)(F)F)c1)[C@@H]1CC=C[C@@H]2CN(C3CCCCC3)C(=O)[C@@H]21 (racemic) [compound 14439] | 5350
44 | O=C1[C@H]2[C@H](C=CC[C@H]2C(=O)N2CCCC2)CCN1Cc1ccccc1 (racemic) [compound 12099] | 6650
45 | O=C(Nc1ccccc1)[C@@H]1CC=C[C@@H]2CCN(Cc3ccccc3)C(=O)[C@@H]21 (racemic) [compound 12125] | > 10000
46 | O=C(Nc1ccc(F)c(F)c1)[C@@H]1CC=C[C@@H]2CCN(CC3CC3)C(=O)[C@@H]21 (racemic) [compound 12155] | 2250
47 | O=C(Nc1cccnc1)[C@@H]1CC=C[C@@H]2CCN(c3ccccc3)C(=O)[C@@H]21 (racemic) [compound 11927] | 2100
48 | O=C(NCc1ccccc1)[C@@H]1CC=C[C@@H]2CCN(Cc3ccccc3)C(=O)[C@@H]21 (racemic) [compound 11930] | 739
49 | CC(C)N(C(=O)[C@@H]1CC=C[C@@H]2CCN(c3ccccc3)C(=O)[C@@H]21)C1CCCCC1 (racemic) [compound 12140] | 416
50 | COc1ccc(-c2cccc(CN3CC[C@H]4C=CC[C@@H](C(=O)Nc5ccc(Cl)c(C(F)(F)F)c5)[C@H]4C3=O)c2)cc1 (racemic) [compound 12161] | 2130
51 | C=CCNC(=O)[C@@H]1CC=C[C@@H]2CCN(CC3CCCCC3)C(=O)[C@@H]21 (racemic) [compound 12110] | 1430
52 | O=C(Nc1ccc(F)c(C(F)(F)F)c1)[C@@H]1CC=C[C@@H]2CCN(Cc3ccccc3)C(=O)[C@@H]21 (racemic) [compound 13474] | 192
53 | O=C(Nc1ccccc1)[C@@H]1CC=C[C@@H]2CN(C3CCCCC3)C(=O)[C@@H]21 (racemic) [compound 14435] | 1610
54 | CCOC(=O)c1ccc(NC(=O)[C@@H]2CC=C[C@@H]3CCN(Cc4ccccc4)C(=O)[C@@H]32)cc1 (racemic) [compound 12124] | 7820
55 | CCOC(=O)C1CCCCN1C(=O)[C@@H]1CC=C[C@@H]2CCN(Cc3ccccc3)C(=O)[C@@H]21 (mixture of isomers) [compound 12127] | > 10000
56 | CC(c1ccccc1)N1CCC2C=CCC(C(=O)Nc3ccc(F)c(F)c3)C2C1=O (mixture of isomers) [compound 12166] | 3200
57 | O=C(NCC1CC1)[C@@H]1CC=C[C@@H]2CCN(CC3CC3)C(=O)[C@@H]21 (racemic) [compound 12090] | 5650
58 | O=C(Nc1cccnc1)[C@@H]1CC=C[C@@H]2CCN(Cc3ccccc3)C(=O)[C@@H]21 (racemic) [compound 11933] | 3530
59 | O=C(Nc1ccccc1)[C@@H]1CC=C[C@@H]2CCCN(C3CCCCC3)C(=O)[C@@H]21 (racemic) [compound 14423] | 8840
60 | O=C(NC12CC3CC(CC(C3)C1)C2)[C@@H]1CC=C[C@@H]2CCN(c3ccccc3)C(=O)[C@@H]21 (racemic) [compound 11946] | 116
61 | Cc1ccc(NC(=O)[C@@H]2CC=C[C@@H]3CCN(Cc4ccccc4F)C(=O)[C@@H]32)cc1C(F)(F)F (racemic) [compound 13479] | 9.5
62 | O=C(Nc1ccccc1)[C@@H]1CC=C[C@@H]2CN(Cc3ccccc3)C(=O)[C@@H]21 (racemic) [compound 14429] | 7020
63 | O=C(Nc1ccc(Cl)cc1)[C@@H]1CC=C[C@@H]2CCN(c3ccccc3)C(=O)[C@@H]21 (racemic) [compound 12097] | 168
